Data as given in ChEMBL document CHEMBL1157650, “Synthesis and bradykinin inhibitory activity of novel non-peptide compounds, and evaluation of in vivo analgesic activity” (2010).
Active and inactive are the calls of the source. No cut-off for these calls is given here.

Each compound was assayed on Rattus norvegicus (assay: Analgesic activity in S1/S2 spinal nerve ligated rat model of neuropathic pain assessed as suppression of cold water-induced allodynia at 60 mg/kg, ip). Conditions: not given.
Type: functional, organism-based
Design: dose 60 mg/kg

Row | SMILES | Activity
1 | CC(CCc1ccccc1)NC(=O)/C=C\C(=O)N1CCN(C(c2ccc(F)cc2)c2ccc(F)cc2)CC1 (centres undefined) | Active

These compounds were tested on Rattus norvegicus (assay: Analgesic activity in S1/S2 spinal nerve ligated rat model of neuropathic pain assessed as suppression of mechanical stimuli-induced allodynia at 60 mg/kg, ip). Conditions: not given.
Type: functional, organism-based
Design: dose 60 mg/kg

Row | SMILES | Activity
2 | CC(CCc1ccccc1)NC(=O)/C=C\C(=O)N1CCN(C(c2ccc(F)cc2)c2ccc(F)cc2)CC1 (centres undefined) | inactive

What follows are compounds tested on Rattus norvegicus (assay: Analgesic activity in S1/S2 spinal nerve ligated rat model of neuropathic pain assessed as suppression of warm water-induced allodynia at 60 mg/kg, ip). Conditions: not given.
Type: functional, organism-based
Design: dose 60 mg/kg

Row | SMILES | Activity
3 | CC(CCc1ccccc1)NC(=O)/C=C\C(=O)N1CCN(C(c2ccc(F)cc2)c2ccc(F)cc2)CC1 (centres undefined) | Active

These compounds were tested on Ileum (assay: Inhibition of bradykinin-induced Hartley guinea pig ileum contraction at 1 uM relative to control). Conditions: Cavia porcellus.
Type: functional

Row | SMILES | inhibition at 1 µM [%]
4 | Cc1ccc(CNC(=O)/C=C\C(=O)N2CCN(C(c3ccccc3)c3ccc(Cl)cc3)CC2)cc1 (centres undefined) | 78.5
5 | COc1cc(CNC(=O)CC(C)(C)CC(=O)N2CCN(C(c3ccccc3)c3ccc(Cl)cc3)CC2)cc(OC)c1OC (centres undefined) | 49.1
6 | Cc1ccc(CNC(=O)CC(C)(C)CC(=O)N2CCN(C(c3ccccc3)c3ccc(Cl)cc3)CC2)cc1 (centres undefined) | 32.9
7 | COc1ccc(CNC(=O)CC(C)CC(=O)N2CCN(C(c3ccccc3)c3ccc(Cl)cc3)CC2)cc1 (centres undefined) | 64.9
8 | CC(CCc1ccccc1)NC(=O)/C=C\C(=O)N1CCN(C(c2ccc(F)cc2)c2ccc(F)cc2)CC1 (centres undefined) | 86.6
9 | COc1cc(CNC(=O)CC(C)CC(=O)N2CCN(C(c3ccccc3)c3ccc(Cl)cc3)CC2)cc(OC)c1OC (centres undefined) | 53.1
10 | O=C(/C=C\C(=O)N1CCN(C(c2ccc(F)cc2)c2ccc(F)cc2)CC1)NC1CCCCC1 | 65.4
11 | O=C(/C=C\C(=O)N1CCCN(C(c2ccccc2)c2ccc(Cl)cc2)CC1)NC1CCCCC1 (centres undefined) | 66
12 | COc1ccc(CNC(=O)CCC(=O)N2CCN(C(c3ccccc3)c3ccc(Cl)cc3)CC2)cc1 (centres undefined) | 57.2
13 | CC(CC(=O)NC1CCCCC1)CC(=O)N1CCCN(C(c2ccccc2)c2ccc(Cl)cc2)CC1 (centres undefined) | 80.3
14 | O=C(CCC(=O)N1CCCN(C(c2ccccc2)c2ccc(Cl)cc2)CC1)NC1CCCCC1 (centres undefined) | 71.7
15 | Cc1ccc(CNC(=O)CC(C)CC(=O)N2CCCN(C(c3ccccc3)c3ccc(Cl)cc3)CC2)cc1 (centres undefined) | 81.3
16 | COc1ccc(CNC(=O)/C=C\C(=O)N2CCN(C(c3ccc(F)cc3)c3ccc(F)cc3)CC2)cc1 | 79.6
17 | CC(C)(CC(=O)NC1CCCCC1)CC(=O)N1CCN(C(c2ccccc2)c2ccc(Cl)cc2)CC1 (centres undefined) | 28
18 | O=C(/C=C\C(=O)N1CCN(C(c2ccccc2)c2ccc(Cl)cc2)CC1)NC1CCCCC1 (centres undefined) | 57.4
19 | Cc1ccc(CNC(=O)CCC(=O)N2CCCN(C(c3ccccc3)c3ccc(Cl)cc3)CC2)cc1 (centres undefined) | 67.7
20 | COc1cc(CNC(=O)CCC(=O)N2CCN(C(c3ccccc3)c3ccc(Cl)cc3)CC2)cc(OC)c1OC (centres undefined) | 65.2

Row | SMILES | inhibition at 1 µM [%]
21 | COc1cc(CNC(=O)CC(C)CC(=O)N2CCCN(C(c3ccccc3)c3ccc(Cl)cc3)CC2)cc(OC)c1OC (centres undefined) | 69.7
22 | N=C(N)NCCC[C@@H](N)C(=O)N[C@@H](CCCNC(=N)N)C(=O)N1CCC[C@H]1C(=O)N1C[C@H](O)C[C@H]1C(=O)NCC(=O)N[C@@H](Cc1cccs1)C(=O)N[C@@H](CO)C(=O)N1Cc2ccccc2C[C@@H]1C(=O)N1[C@H](C(=O)N[C@@H](CCCNC(=N)N)C(=O)O)C[C@@H]2CCCC[C@@H]21 [ICATIBANT] | 100
23 | Cc1ccc(CNC(=O)/C=C\C(=O)N2CCCN(C(c3ccccc3)c3ccc(Cl)cc3)CC2)cc1 (centres undefined) | 79.4
24 | Cc1ccc(CNC(=O)CC(C)CC(=O)N2CCN(C(c3ccccc3)c3ccc(Cl)cc3)CC2)cc1 (centres undefined) | 64.8
25 | CC(CC(=O)NC1CCCCC1)CC(=O)N1CCN(C(c2ccccc2)c2ccc(Cl)cc2)CC1 (centres undefined) | 60.8
26 | CC(CCc1ccccc1)NC(=O)/C=C\C(=O)N1CCN(C(c2ccccc2)c2ccccc2)CC1 (centres undefined) | 77.5
27 | COc1ccc(CNC(=O)CCC(=O)N2CCCN(C(c3ccccc3)c3ccc(Cl)cc3)CC2)cc1 (centres undefined) | 80.9
28 | COc1ccc(CNC(=O)/C=C\C(=O)N2CCN(C(c3ccccc3)c3ccc(Cl)cc3)CC2)cc1 (centres undefined) | 74.1
29 | Cc1ccc(CNC(=O)CCC(=O)N2CCN(C(c3ccccc3)c3ccc(Cl)cc3)CC2)cc1 (centres undefined) | 67.9
30 | COc1ccc(CNC(=O)/C=C\C(=O)N2CCCN(C(c3ccccc3)c3ccc(Cl)cc3)CC2)cc1 (centres undefined) | 75
31 | COc1ccc(CNC(=O)CC(C)CC(=O)N2CCCN(C(c3ccccc3)c3ccc(Cl)cc3)CC2)cc1 (centres undefined) | 78.3
32 | Cc1ccc(CNC(=O)/C=C\C(=O)N2CCN(C(c3ccc(F)cc3)c3ccc(F)cc3)CC2)cc1 | 84.5
33 | COc1ccc(CNC(=O)CC(C)(C)CC(=O)N2CCN(C(c3ccccc3)c3ccc(Cl)cc3)CC2)cc1 (centres undefined) | 31.6
34 | O=C(CCC(=O)N1CCN(C(c2ccccc2)c2ccc(Cl)cc2)CC1)NC1CCCCC1 (centres undefined) | 79
35 | CC(CC(=O)N(C)C)CC(=O)N1CCN(C(c2ccccc2)c2ccc(Cl)cc2)CC1 (centres undefined) | 36
36 | COc1cc(CNC(=O)CCC(=O)N2CCCN(C(c3ccccc3)c3ccc(Cl)cc3)CC2)cc(OC)c1OC (centres undefined) | 72.6
37 | CC(CCc1ccccc1)NC(=O)/C=C\C(=O)N1CCCN(C(c2ccccc2)c2ccc(Cl)cc2)CC1 (centres undefined) | 79.7

What follows are compounds tested on Rattus norvegicus (assay: Antinociceptive activity against formalin-induced pain in rat assessed as time spent in licking, shaking or biting paw in late phase at 60 ug, sc (Rvb=334.21 +/- 51.10 sec)). Conditions: not given.
Type: functional

Row | SMILES | Activity [s]
38 | CC(CCc1ccccc1)NC(=O)/C=C\C(=O)N1CCN(C(c2ccc(F)cc2)c2ccc(F)cc2)CC1 (centres undefined) | 129.31

What follows are compounds tested on Rattus norvegicus (assay: Antinociceptive activity against formalin-induced pain in rat assessed as time spent in licking, shaking or biting paw in early phase at 60 ug, sc (Rvb=47.05 +/- 8.53 sec)). Conditions: not given.
Type: functional

Row | SMILES | Activity [s]
39 | CC(CCc1ccccc1)NC(=O)/C=C\C(=O)N1CCN(C(c2ccc(F)cc2)c2ccc(F)cc2)CC1 (centres undefined) | 14.82
